# In US12319655B2, “RAF kinase inhibitors and methods of use thereof” (Deciphera Pharmaceuticals, LLC, priority 2021, dated 2025):
# Assays:
# A375 cells = test: A375 Cell Proliferation Assay (1); type: cell-based; settings: Homo sapiens, A-375
# In short: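 Resazurin fluorescence (excitation 540 nm, emission 600 nm, after a further 5-6 h) gave IC50s from triplicate compound dilution series.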
# [1] = molecular target: C-Raf kinase (SEQ. ID NO: 3) (Homo sapiens (Human), UniProt P04049, Y340D/Y341D); test: Biochemical Assay for C-Raf (1); settings: Table J, assay version (1); read-out: CRAF (1) IC50
# C-Raf kinase (SEQ. ID NO: 3), sequence (P04049 307-648 Y340D/Y341D): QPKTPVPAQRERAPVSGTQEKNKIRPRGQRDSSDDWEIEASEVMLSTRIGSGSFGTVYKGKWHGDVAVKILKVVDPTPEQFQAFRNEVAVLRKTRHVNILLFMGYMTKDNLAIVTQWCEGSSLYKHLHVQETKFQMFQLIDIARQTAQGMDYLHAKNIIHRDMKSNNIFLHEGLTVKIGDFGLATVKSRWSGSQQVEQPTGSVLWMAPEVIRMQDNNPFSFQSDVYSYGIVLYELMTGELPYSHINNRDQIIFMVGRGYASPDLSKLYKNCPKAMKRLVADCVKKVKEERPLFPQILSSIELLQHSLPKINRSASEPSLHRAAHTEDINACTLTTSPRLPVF
# In short: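 Coupled pyruvate kinase/LDH assay tracking NADH oxidation at 340 nm, with 0.43 nM C-Raf, 30.1 nM MEK and 1 mM ATP in pH 7.5 Tris buffer (15 mM MgCl2, 1% DMSO final). Read continuously for 6 h at 30 °C, rate taken from the 4–5 h window. IC50 from four-parameter fit of percent inhibition.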
# [2] = molecular target: B-Raf kinase (SEQ. ID NO: 2) (Homo sapiens (Human), UniProt P15056); test: Biochemical Assay for B-Raf (1); settings: Table J, assay version (1); read-out: BRAF (1) IC50
# B-Raf kinase (SEQ. ID NO: 2), sequence (P15056 416-766): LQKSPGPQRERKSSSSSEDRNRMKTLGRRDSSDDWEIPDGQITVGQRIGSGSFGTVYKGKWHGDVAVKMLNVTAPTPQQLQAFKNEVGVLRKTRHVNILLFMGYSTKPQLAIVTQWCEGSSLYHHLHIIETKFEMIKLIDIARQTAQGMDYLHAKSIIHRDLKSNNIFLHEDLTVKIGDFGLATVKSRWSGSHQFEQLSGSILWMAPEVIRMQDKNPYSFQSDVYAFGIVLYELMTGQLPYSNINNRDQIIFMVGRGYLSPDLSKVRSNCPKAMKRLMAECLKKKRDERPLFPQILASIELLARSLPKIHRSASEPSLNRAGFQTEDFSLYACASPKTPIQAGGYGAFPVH
# In short: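 Continuous PK/LDH-coupled NADH oxidation assay, A340 read for 6 h at 30° C., with 0.13 nM B-Raf, 30.1 nM MEK substrate and 1 mM ATP in Tris pH 7.5, MgCl2, DTT, detergents, 1% DMSO. Rate taken from 4–5 h window; percent inhibition vs no-compound and known-inhibitor controls; four-parameter fit gives IC50.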
# WM3928 cells = test: WM3928 Cell Proliferation Assay (1); type: cell-based
# Description: WM3928 Cell Proliferation Assay (1)
# WM3928 cells (#WM3928-01-0001) are obtained from Rockland Immunochemicals Inc (Gilbertsville, PA). Briefly, cells were grown in MCDB 153 medium (Sigma, #M7403, St. Louis, MO) supplemented with 20% Leibovitz's L-15 (ThermoFisher #11415-064, Waltham, MA), 2% heat inactivated fetal bovine serum (ThermoFisher, #A3840001, Waltham, MA), 5 μg/mL Insulin (Bovine Pancreas) (Sigma, #I0516, St. Louis, MO), 1.68 mM Calcium Chloride (Sigma, #C-34006, St. Louis, MO) and 1% Penicillin/Streptomycin/L-Glutamine (ThermoFisher #10378016, Waltham, MA) at 37° C., 5% CO2, and 95% humidity. Cells are expanded until reaching 70-95% confluency at which point they are subcultured or harvested for assay use. A serial dilution of test compound is dispensed into a 96-well black clear bottom plate in triplicate. Three thousand cells are added per well in 200 μL complete growth medium in the 96-well plate. Plates are incubated for 67-72 hours at 37° C., 5% CO2, and 95% humidity. At the end of the incubation, 40 μL of a 440 μM solution of resazurin (Sigma, #199303, St. Louis, MO) in PBS is added to each well of the plate and plates are incubated for an additional 6-7 hours at 37° C., 5% CO2, and 95% humidity. Plates are read on a Synergy2 or equivalent reader (Biotek, Winooski VT) using an excitation of 540 nm and an emission of 600 nm. Data is analyzed using Prism software (GraphPad, San Diego, CA) to calculate IC50 values.
Compound,IC50 (A375 cells) [nM],IC50 [1] [nM],IC50 [2] [nM],IC50 (WM3928 cells) [nM]
CC(=O)Nc1cc(-c2cccc(-c3cc(NC(=O)c4ccnc(C(F)(F)F)c4)c(F)cc3C)c2)ncn1 [Example 114],≤ 100,≤ 100,≤ 100,≤ 100
Cc1ccc(NC(=O)c2ccnc(C(F)F)c2)cc1-c1cncc(-c2ccnc(NC(=O)C3CC3)c2)n1 [Example 117],100 to 500,≤ 100,≤ 100,≤ 100
CC(=O)Nc1cc(-c2nccc(-c3cc(NC(=O)c4ccnc(C(C)(C)C#N)c4)ccc3C)n2)ccn1 [Example 118],≤ 100,≤ 100,≤ 100,≤ 100
Cc1ccc(NC(=O)c2ccnc(C(F)(F)F)c2)cc1-c1ccnc(-c2ccnc(N)c2)n1 [Example 122],1000 to 10000,≤ 100,≤ 100,1000 to 10000
Cc1ccc(NC(=O)c2ccnc(C(F)(F)F)c2)cc1-c1cncc(-c2ccnc(NC=O)c2)n1 [Example 123],100 to 500,≤ 100,≤ 100,100 to 500
CC(=O)Nc1cc(-c2cncc(-c3cc(NC(=O)c4cc(C(F)(F)F)ccn4)ccc3C)n2)ccn1 [Example 124],≤ 100,≤ 100,≤ 100,≤ 100
CC(=O)Nc1cc(-c2cncc(-c3cc(NC(=O)c4cccc(C(C)(C)C#N)c4)ccc3C)n2)ccn1 [Example 125],≤ 100,≤ 100,≤ 100,≤ 100
Cc1ncc(NC(=O)c2ccnc(C(C)(C)C#N)c2)cc1-c1cccc(-c2ncnc3[nH]ncc23)c1 [Example 129],500 to 1000,≤ 100,≤ 100,100 to 500
Cc1ncc(NC(=O)c2ccnc(C3CC3)c2)cc1-c1cccc(-c2ncnc3[nH]ncc23)c1 [Example 131],1000 to 10000,≤ 100,≤ 100,1000 to 10000
CC(=O)Nc1nccc(-c2cccc(-c3cc(NC(=O)c4ccnc(C(F)(F)F)c4)ccc3C)c2)c1C#N [Example 132],500 to 1000,≤ 100,100 to 500,100 to 500
Cc1ccc(NC(=O)c2ccnc(C(C)(C)C#N)c2)cc1-c1cccc(-c2ccnc3[nH]ncc23)c1 [Example 134],100 to 500,≤ 100,≤ 100,≤ 100
CC(=O)Nc1cc(-c2cncc(-c3cc(NC(=O)c4ccnc(C(C)(C)C#N)c4)ccc3C)n2)ccn1 [Example 140],≤ 100,≤ 100,≤ 100,≤ 100
CC(=O)Nc1cc(-c2cncc(-c3cc(NC(=O)c4ccnc(C5CC5)c4)ccc3C)n2)ccn1 [Example 145],≤ 100,≤ 100,≤ 100,≤ 100
CC(=O)Nc1cc(-c2cncc(-c3cc(NC(=O)c4ccnc(C5(C#N)CC5)c4)ccc3C)n2)ccn1 [Example 146],≤ 100,≤ 100,≤ 100,≤ 100
Cc1ccc(NC(=O)c2ccnc(C(C)(C)C#N)c2)cc1-c1cncc(-c2ccnc(C(=O)NC3CC3)c2)n1 [Example 148],1000 to 10000,100 to 500,100 to 500,500 to 1000
CC(=O)Nc1cc(-c2nccc(-c3cc(NC(=O)c4cccc(C(C)(C)C#N)c4)ccc3C)n2)ccn1 [Example 150],≤ 100,≤ 100,≤ 100,≤ 100
CC(=O)Nc1cc(-c2nccc(-c3cc(NC(=O)c4ccnc(C5(C#N)CC5)c4)ccc3C)n2)ccn1 [Example 151],≤ 100,≤ 100,≤ 100,≤ 100

Compound,IC50 (A375 cells) [nM],IC50 [1] [nM],IC50 [2] [nM],IC50 (WM3928 cells) [nM]
CC(=O)Nc1cc(-c2nccc(-c3cc(NC(=O)c4ccnc(C5CC5)c4)ccc3C)n2)ccn1 [Example 152],100 to 500,≤ 100,≤ 100,≤ 100
Cc1ccc(NC(=O)c2ccnc(C(C)(C)C#N)c2)cc1-c1cncc(-c2ccnc(NC(=O)CC#N)c2)n1 [Example 154],≤ 100,≤ 100,≤ 100,≤ 100
COCCNc1cc(-c2cccc(-c3cc(NC(=O)c4ccnc(C(F)(F)F)c4)ccc3C)c2)ncn1 [Example 156],1000 to 10000,≤ 100,100 to 500,500 to 1000
CC(=O)Nc1cc(-c2nccc(-c3cc(NC(=O)c4ccnc(C(F)(F)F)c4)cnc3C)n2)ccn1 [Example 157],1000 to 10000,≤ 100,≤ 100,100 to 500
CNC(=O)c1cc(-c2cc(-c3cc(NC(=O)c4ccnc(C(C)(C)C#N)c4)cnc3C)ccn2)ccn1 [Example 158],≤ 100,100 to 500,100 to 500,100 to 500
CNc1cc(-c2cccc(-c3cc(NC(=O)c4ccnc(C(C)(C)C#N)c4)ccc3C)c2)ncn1 [Example 160],100 to 500,≤ 100,≤ 100,≤ 100
Cc1ccc(NC(=O)c2ccnc(C(C)(C)C#N)c2)cc1-c1cncc(-c2ccnc(NC=O)c2)n1 [Example 161],≤ 100,≤ 100,≤ 100,≤ 100
Cc1ccc(NC(=O)c2ccnc(C(C)(C)C#N)c2)cc1-c1ccnc(-c2ccnc(C(=O)NC3CC3)c2)c1 [Example 162],100 to 500,100 to 500,100 to 500,100 to 500
CNC(=O)c1cc(-c2cc(-c3cc(NC(=O)c4ccnc(C(C)(C)C#N)c4)ccc3C)cc(C3CC3)n2)ccn1 [Example 163],≤ 100,100 to 500,100 to 500,≤ 100
CC(=O)Nc1cc(-c2nccc(-c3cc(NC(=O)c4cnnc(C5CC5)c4)ccc3C)n2)ccn1 [Example 168],500 to 1000,≤ 100,≤ 100,500 to 1000
Cc1ccc(NC(=O)c2ccnc(C(C)(C)C#N)c2)cc1-c1nccc(-c2ccnc(NC(=O)C3CC3)c2)n1 [Example 169],≤ 100,≤ 100,≤ 100,≤ 100
CNC(=O)c1cc(-c2cccc(-c3cc(NC(=O)c4ccnc(C(C)(C)C#N)c4)ccc3C)c2)ncn1 [Example 171],≤ 100,≤ 100,≤ 100,≤ 100
Cc1ncc(NC(=O)c2ccnc(C(C)(C)C#N)c2)cc1-c1cccc(-c2ccnc(NC(=O)C3CC3)c2)n1 [Example 172],≤ 100,≤ 100,≤ 100,≤ 100
Cc1ccc(NC(=O)c2cccc(C(C)(C)C#N)c2)cc1-c1cccc(-c2cc(NC(=O)C3CC3)ncn2)c1 [Example 174],≤ 100,≤ 100,≤ 100,≤ 100
CNC(=O)c1cc(-c2nccc(-c3cc(NC(=O)c4ccnc(C5(C#N)CC5)c4)ccc3C)n2)ccn1 [Example 175],100 to 500,≤ 100,≤ 100,≤ 100
CNC(=O)c1cc(-c2cc(-c3cc(NC(=O)c4ccnc(C(C)(C)C#N)c4)c(F)cc3C)ccn2)ccn1 [Example 176],≤ 100,≤ 100,100 to 500,≤ 100
CNC(=O)c1cc(-c2ccnc(-c3cc(NC(=O)c4ccnc(C(C)(C)C#N)c4)ccc3C)n2)ccn1 [Example 177],100 to 500,≤ 100,100 to 500,≤ 100
